Data from PubChem BioAssay AID1963964 (Molecular Pharmacology Branch, DTP, NCI, 2024).

Tested on: 997726-040-R-J2-PDC tumor spheroids, viability
Assay: Anticancer human tumor 997726-040-R-J2-PDC patient-derived squamous cell lung carcinoma cell line growth inhibition [PI3K]
Conditions: spheroids with HUVEC and MSC; for IC50: curve of first compound; for viability, T/C: stronger effect = lower value
Outline: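 Stroma-containing spheroids: tumor line, pooled-donor HUVEC, hMSC. Treatments: targeted agents with PI3K inhibitors. Dosing: clinically relevant, half-log spacing, 10 microM ceiling without known Cmax. Read-out: cell viability.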

[1] = second compound 0.0316 µM, first compound 0.0316 µM
[2] = second compound 0.0316 µM, first compound 0.1 µM
[3] = second compound 0.1 µM, first compound 0.0316 µM
[4] = second compound 0.1 µM, first compound 0.1 µM
[5] = second compound 0.316 µM, first compound 0.0316 µM
[6] = second compound 0.316 µM, first compound 0.1 µM
[7] = second compound 1 µM, first compound 0.0316 µM
[8] = second compound 1 µM, first compound 0.1 µM
[9] = second compound 3.16 µM, first compound 0.0316 µM
[10] = second compound 3.16 µM, first compound 0.1 µM
[11] = second compound 10 µM, first compound 0.0316 µM
[12] = second compound 10 µM, first compound 0.1 µM
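Also: spheroids exposed to compounds for seven days before readout.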

Question: For `C[C@@H](NC(=O)c1ncnc(N)c1Cl)c1ncc(C(=O)Nc2cc(C(F)(F)F)c(Cl)cn2)s1` + Cc1nc(NC(=O)N2CCCC2C(N)=O)sc1-c1ccnc(C(C)(C)C(F)(F)F)c1, which IC50 (second compound 0.0316 µM) is on record?
Answer: > 10000 nM

Question: What about the IC50 (second compound 0.1 µM) of the same molecule?
Answer: > 10000 nM

Question: What about the IC50 (second compound 0.316 µM) of the same molecule?
Answer: > 10000 nM

Question: And the IC50 (second compound 1 µM)?
Answer: 58.9 nM

Question: And the IC50 (second compound 3.16 µM)?
Answer: < 31.6 nM

Question: What about the IC50 (second compound 10 µM) of the same molecule?
Answer: < 31.6 nM

Question: What about the viability, T/C [1] of the same molecule?
Answer: 101%

Question: What about the viability, T/C [2] of the same molecule?
Answer: 115%

Question: What about the viability, T/C (second compound 0.0316 µM, first compound 0.316 µM) of the same molecule?
Answer: 111%

Question: What about the viability, T/C (second compound 0.0316 µM, first compound 1 µM) of the same molecule?
Answer: 107%

Question: And the viability, T/C (second compound 0.0316 µM, first compound 3.16 µM)?
Answer: 102%

Question: What about the viability, T/C (second compound 0.0316 µM, first compound 10 µM) of the same molecule?
Answer: 68.2%

Question: And the viability, T/C [3]?
Answer: 96%

Question: And the viability, T/C [4]?
Answer: 97.5%

Question: What about the viability, T/C (second compound 0.1 µM, first compound 0.316 µM) of the same molecule?
Answer: 99.5%

Question: And the viability, T/C (second compound 0.1 µM, first compound 1 µM)?
Answer: 83.9%

Question: And the viability, T/C (second compound 0.1 µM, first compound 3.16 µM)?
Answer: 66.3%

Question: And the viability, T/C (second compound 0.1 µM, first compound 10 µM)?
Answer: 60.2%

Question: And the viability, T/C [5]?
Answer: 64.7%

Question: What about the viability, T/C [6] of the same molecule?
Answer: 62.4%

Question: What about the viability, T/C (second compound 0.316 µM, first compound 0.316 µM) of the same molecule?
Answer: 66.8%

Question: And the viability, T/C (second compound 0.316 µM, first compound 1 µM)?
Answer: 76.3%

Question: And the viability, T/C (second compound 0.316 µM, first compound 3.16 µM)?
Answer: 61.3%

Question: And the viability, T/C (second compound 0.316 µM, first compound 10 µM)?
Answer: 47.7%

Question: What about the viability, T/C [7] of the same molecule?
Answer: 49.4%

Question: And the viability, T/C [8]?
Answer: 49.5%

Question: And the viability, T/C (second compound 1 µM, first compound 0.316 µM)?
Answer: 45.3%

Question: What about the viability, T/C (second compound 1 µM, first compound 1 µM) of the same molecule?
Answer: 48.6%

Question: And the viability, T/C (second compound 1 µM, first compound 3.16 µM)?
Answer: 42.8%

Question: What about the viability, T/C (second compound 1 µM, first compound 10 µM) of the same molecule?
Answer: 35.4%

Question: And the viability, T/C [9]?
Answer: 36.6%

Question: And the viability, T/C [10]?
Answer: 39.9%

Question: What about the viability, T/C (second compound 3.16 µM, first compound 0.316 µM) of the same molecule?
Answer: 34.5%

Question: And the viability, T/C (second compound 3.16 µM, first compound 1 µM)?
Answer: 33%

Question: What about the viability, T/C (second compound 3.16 µM, first compound 3.16 µM) of the same molecule?
Answer: 35.9%

Question: And the viability, T/C (second compound 3.16 µM, first compound 10 µM)?
Answer: 21.2%

Question: What about the viability, T/C [11] of the same molecule?
Answer: 15%

Question: What about the viability, T/C [12] of the same molecule?
Answer: 15.4%

Question: And the viability, T/C (second compound 10 µM, first compound 0.316 µM)?
Answer: 18.4%

Question: And the viability, T/C (second compound 10 µM, first compound 1 µM)?
Answer: 18.8%

Question: What about the viability, T/C (second compound 10 µM, first compound 3.16 µM) of the same molecule?
Answer: 19.6%

Question: What about the viability, T/C (second compound 10 µM, first compound 10 µM) of the same molecule?
Answer: 8.61%

Question: With `Cn1ncnc1[C@H]1c2n[nH]c(=O)c3cc(F)cc(c23)N[C@@H]1c1ccc(F)cc1` + Cc1nc(NC(=O)N2CCCC2C(N)=O)sc1-c1ccnc(C(C)(C)C(F)(F)F)c1 as the molecule, how does the IC50 (second compound 0.0316 µM) read?
Answer: > 100 nM

Question: And the IC50 (second compound 0.1 µM)?
Answer: > 100 nM

Question: And the IC50 (second compound 0.316 µM)?
Answer: > 100 nM

Question: And the IC50 (second compound 1 µM)?
Answer: < 0.316 nM

Question: What about the IC50 (second compound 3.16 µM) of the same molecule?
Answer: < 0.316 nM

Question: What about the IC50 (second compound 10 µM) of the same molecule?
Answer: < 0.316 nM

Question: And the viability, T/C (second compound 0.0316 µM, first compound 0.000316 µM)?
Answer: 83.8%

Question: And the viability, T/C (second compound 0.0316 µM, first compound 0.001 µM)?
Answer: 81.5%

Question: What about the viability, T/C (second compound 0.0316 µM, first compound 0.00316 µM) of the same molecule?
Answer: 94.3%

Question: What about the viability, T/C (second compound 0.0316 µM, first compound 0.01 µM) of the same molecule?
Answer: 84.9%

Question: And the viability, T/C [1]?
Answer: 90.7%

Question: And the viability, T/C [2]?
Answer: 90.4%

Question: And the viability, T/C (second compound 0.1 µM, first compound 0.000316 µM)?
Answer: 75.5%

Question: What about the viability, T/C (second compound 0.1 µM, first compound 0.001 µM) of the same molecule?
Answer: 78.6%

Question: What about the viability, T/C (second compound 0.1 µM, first compound 0.00316 µM) of the same molecule?
Answer: 78.5%

Question: And the viability, T/C (second compound 0.1 µM, first compound 0.01 µM)?
Answer: 80.2%

Question: And the viability, T/C [3]?
Answer: 80.8%

Question: What about the viability, T/C [4] of the same molecule?
Answer: 78.2%

Question: And the viability, T/C (second compound 0.316 µM, first compound 0.000316 µM)?
Answer: 54.5%

Question: And the viability, T/C (second compound 0.316 µM, first compound 0.001 µM)?
Answer: 59.4%

Question: And the viability, T/C (second compound 0.316 µM, first compound 0.00316 µM)?
Answer: 57.2%

Question: What about the viability, T/C (second compound 0.316 µM, first compound 0.01 µM) of the same molecule?
Answer: 57.2%

Question: What about the viability, T/C [5] of the same molecule?
Answer: 58.4%

Question: And the viability, T/C [6]?
Answer: 58%

Question: And the viability, T/C (second compound 1 µM, first compound 0.000316 µM)?
Answer: 46.2%

Question: What about the viability, T/C (second compound 1 µM, first compound 0.001 µM) of the same molecule?
Answer: 43.4%

Question: What about the viability, T/C (second compound 1 µM, first compound 0.00316 µM) of the same molecule?
Answer: 40.3%

Question: What about the viability, T/C (second compound 1 µM, first compound 0.01 µM) of the same molecule?
Answer: 41.5%

Question: And the viability, T/C [7]?
Answer: 44.9%

Question: What about the viability, T/C [8] of the same molecule?
Answer: 45.1%

Question: What about the viability, T/C (second compound 3.16 µM, first compound 0.000316 µM) of the same molecule?
Answer: 33%

Question: And the viability, T/C (second compound 3.16 µM, first compound 0.001 µM)?
Answer: 29.4%

Question: What about the viability, T/C (second compound 3.16 µM, first compound 0.00316 µM) of the same molecule?
Answer: 30%

Question: What about the viability, T/C (second compound 3.16 µM, first compound 0.01 µM) of the same molecule?
Answer: 31.4%

Question: What about the viability, T/C [9] of the same molecule?
Answer: 30.4%

Question: And the viability, T/C [10]?
Answer: 29%

Question: What about the viability, T/C (second compound 10 µM, first compound 0.000316 µM) of the same molecule?
Answer: 17.2%

Question: And the viability, T/C (second compound 10 µM, first compound 0.001 µM)?
Answer: 18%

Question: And the viability, T/C (second compound 10 µM, first compound 0.00316 µM)?
Answer: 16.3%

Question: And the viability, T/C (second compound 10 µM, first compound 0.01 µM)?
Answer: 13.6%

Question: And the viability, T/C [11]?
Answer: 18.8%

Question: And the viability, T/C [12]?
Answer: 12.8%
